Assay results taken from patent publication US20250345329A1, “HETEROARYL DERIVATIVE COMPOUND AND USES THEREOF” (VORONOI, INC., priority 2022, published 2025).

Tests used:
[1] = target: T1, human EGFR (d746-750/T790M/C797S) (Homo sapiens, UniProt P00533, C797S/DEL746-750/T790M); experiment: EGFR C797S enzyme inhibition activity (ADP-Glo kinase assay); type: biochemical; conditions: purified enzyme 3 ng, ATP 5 μM, 25° C., 1 hour, luminescence; read-out: EGFR DTC Enzyme IC50
T1 construct: human EGFR (d746-750/T790M/C797S) (668-end, SignalChem); purchased SignalChem
T1 sequence (P00533 with tags, fused parts or gaps DEL746-750/T790M/C797S): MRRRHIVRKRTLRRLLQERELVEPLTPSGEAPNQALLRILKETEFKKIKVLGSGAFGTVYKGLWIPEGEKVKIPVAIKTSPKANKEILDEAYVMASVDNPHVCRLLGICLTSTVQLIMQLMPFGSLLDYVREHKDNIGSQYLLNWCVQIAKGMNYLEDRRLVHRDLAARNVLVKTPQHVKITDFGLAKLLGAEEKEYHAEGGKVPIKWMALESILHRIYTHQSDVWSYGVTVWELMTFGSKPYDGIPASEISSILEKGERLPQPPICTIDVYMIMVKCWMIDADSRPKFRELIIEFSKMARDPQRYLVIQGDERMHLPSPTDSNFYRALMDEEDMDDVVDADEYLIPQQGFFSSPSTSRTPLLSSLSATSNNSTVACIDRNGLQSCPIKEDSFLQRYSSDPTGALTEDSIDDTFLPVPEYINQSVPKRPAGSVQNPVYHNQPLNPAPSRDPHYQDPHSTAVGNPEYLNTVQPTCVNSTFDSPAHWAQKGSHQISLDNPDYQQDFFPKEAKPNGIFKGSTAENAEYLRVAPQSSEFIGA
Description: <Experimental Example 1> Evaluation of EGFR C797S Enzyme Inhibition Activity
The compounds according to the present invention were reacted together with purified human EGFR (d746-750/T790M/C797S) (668-end, SignalChem) enzyme and a specific substrate and evaluated for enzyme inhibitory activity as described below. The reaction buffer consisted of 40 mM Tris-HCl pH 7.4, 20 mM MgCl2, 0.5 mg/ml BSA, and 50 μM DTT, and all reactions of the test substances were performed in reaction buffers. The compounds were serially diluted in 12 steps from a 10 mM DMSO stock, and the enzyme activity was measured at the final compound concentrations of 10, 3, 1, 0.3, 0.1, 0.03, 0.01, 0.003, 0.001, 0.0003, 0.0001, and 0 μM. In the assay, human EGFR (d746-750/T790M/C797S) (3 ng) enzyme was reacted with purified ATP (5 μM) and enzyme substrate (0.2 μg) at 25° C. for 1 hour, and the enzyme activity was determined using the in vitro ADP-Glo™ kinase assay (Promega). The enzyme activity inhibition was measured via luminescence by reacting the enzyme activity reaction solution, ADP-Glo reaction solution, and enzyme activity detection solution in a 2:2:1 ratio. Based on the luminescence of the enzyme activity of the solvent control group that was not treated with the compound, the degree of the enzyme activity inhibition depending on the treatment concentration of each compound was calculated, wherein the concentration of each compound that inhibited the enzyme activity by 50% was determined as the IC50 (nM) value, which was obtained using GraphPad Prism 8.4.3 (GraphPad software Inc., San Diego).

[2] = system: Ba/F3 expressing EGFR Del19/T790M/C797S mutations; experiment: Inhibitory activity on proliferation of Ba/F3 cell overexpressing EGFR C797S (Cell Titer-Glo); type: cell-based; conditions: Mus musculus, BaF3; 72 hours treatment, cell growth rate vs control; read-out: Ba/F3 (EGFR DTC) GI50
Description: <Experimental Example 2> Evaluation of Inhibitory Activity on Proliferation of Ba/F3 Cell Overexpressing EGFR C797S
The following experiments were performed to evaluate the inhibitory activity of the compounds according to the present invention on the proliferation of Ba/F3 expressing EGFR Del19/T790M/C797S mutations.
Ba/F3 cells were cultured in RPMI-1640 medium supplemented with 10% fetal bovine serum (FBS), and 3000 cells were seeded into each well of a white clear bottom 96 well plate (Corning) 24 hours prior to compound treatment. The compounds were diluted in dimethyl sulfoxide (3-fold dilution, total of 12 concentrations) and injected at 1 μl each so that the final concentration was […] to 5 μM. After 72 hours post treatment with compounds, living cells were reacted in a 37° C., CO2 incubator for […], followed by 10 minutes at room temperature using Cell Titer-Glo luminescent cell-viability reagent (Promega), and the luminescence intensity thereof was measured using a reader (SynergyNeo2, Biotek). The result values were calculated as a cell growth rate (%) compared to the control group. GI50 values were calculated using the GraphPad Prism version 8.4.3 (GraphPad software Inc., San Diego) program.

Row | Structure (SMILES) | IC50 [1] | GI50 [2]
1 | CC(C)Nc1cc(Nc2ccnc(-c3cnn(S(=O)(=O)C4CC4)c3)n2)ncc1C(=O)Nc1cc(N2CCN(C)CC2)cc(C(C)(C)C#N)c1 [Example 40, N-(3-(2-cyanopropan-2-yl)-5-(4-methylpiperazin-1-yl)phenyl)-6-((2-(1-(cyclopropylsulfonyl)-1H-pyrazol-4-yl)pyrimidin-4-yl)amino)-4-(isopropylamino)nico-tinamide] | 50 to 500 nM | 500 to 5000 nM
2 | CC(C)Nc1cc(Nc2ccnc(-c3cnn(S(=O)(=O)C4CC4)c3)n2)ncc1C(=O)NC1CN(C(=O)OC(C)(C)C)C1 [Example 46, tert-butyl 3-(6-((2-(1-(cyclopropylsulfonyl)-1H-pyrazol-4-yl)pyrimidin-4-yl)amino)-4-(isopropylamino)nico-tinamido)azetidine-1-carboxylate] | 50 to 500 nM | 500 to 5000 nM
3 | CC(C)Nc1cc(Nc2ccnc(-c3cnn(S(=O)(=O)C4CC4)c3)n2)ncc1C(=O)NC1CCN(C(=O)OC(C)(C)C)C1 (stereo not shown) [Example 47, tert-butyl 3-(6-((2-(1-(cyclopropylsulfonyl)-1H-pyrazol-4-yl)pyrimidin-4-yl)amino)-4-(isopropylamino)nico-tinamido)pyrrolidine-1-carboxylate] | 50 to 500 nM | 500 to 5000 nM
4 | CC(C)Nc1cc(Nc2ccnc(-c3cnn(S(=O)(=O)C4CC4)c3)n2)ncc1C(=O)NC1CN(S(C)(=O)=O)C1 [Example 48, 6-((2-(1-(cyclopropylsulfonyl)-1H-pyrazol-4-yl)pyrimidin-4-yl)amino)-4-(isopropylamino)-N-(1-(methylsulfonyl)azeti-din-3-yl)nicotinamide] | < 50 nM | < 500 nM
5 | CC(C)Nc1cc(Nc2ccnc(-c3cnn(S(=O)(=O)C4CC4)c3)n2)ncc1C(=O)NC1CCN(S(C)(=O)=O)C1 (stereo not shown) [Example 49, 6-((2-(1-(cyclopropylsulfonyl)-1H-pyrazol-4-yl)pyrimidin-4-yl)amino)-4-(isopropylamino)-N-(1-(methylsulfonyl)pyrro-lidin-3-yl)nicotinamide] | < 50 nM | 500 to 5000 nM
6 | COC(=O)CCNC(=O)c1cnc(Nc2ccnc(-c3cnn(S(=O)(=O)C4CC4)c3)n2)cc1NC(C)C [Example 50, methyl 3-(6-((2-(1-(cyclopropylsulfonyl)-1H-pyrazol-4-yl)pyrimidin-4-yl)amino)-4-(isopropylamino)nico-tinamido)propanoate] | < 50 nM | 500 to 5000 nM
7 | CC(C)Nc1cc(Nc2ccnc(-c3cnn(S(=O)(=O)C4CC4)c3)n2)ncc1C(=O)NCC1CCN(C)CC1 [Example 51, 6-((2-(1-(cyclopropylsulfonyl)-1H-pyrazol-4-yl)pyrimidin-4-yl)amino)-4-(isopropylamino)-N-((1-methylpiperidin-4-yl)methyl)nicotinamide] | < 50 nM | 500 to 5000 nM
8 | CC(C)Nc1cc(Nc2ccnc(-c3cnn(S(=O)(=O)C4CC4)c3)n2)ncc1C(=O)NC(CCN(C)C)c1ccccc1 (stereo not shown) [Example 53, 6-((2-(1-(cyclopropylsulfonyl)-1H-pyrazol-4-yl)pyrimidin-4-yl)amino)-N-(3-(dimethylamino)-1-phenylpropyl)-4-(isopropylamino)nico-tinamide] | < 50 nM | 500 to 5000 nM
9 | CC(C)Nc1cc(Nc2ccnc(-c3cnn(S(=O)(=O)C4CC4)c3)n2)ncc1C(=O)NCc1ccc(C#N)cc1 [Example 55, N-(4-cyanobenzyl)-6-((2-(1-(cyclopropylsulfonyl)-1H-pyrazol-4-yl)pyrimidin-4-yl)amino)-4-(isopropylamino)nico-tinamide] | 50 to 500 nM | 500 to 5000 nM
10 | CC(C)Nc1cc(Nc2ccnc(-c3cnn(S(=O)(=O)C4CC4)c3)n2)ncc1C(=O)NCC1CCCC1 [Example 56, N-(cyclopentylmethyl)-6-((2-(1-(cyclopropylsulfonyl)-1H-pyrazol-4-yl)pyrimidin-4-yl)amino)-4-(isopropylamino)-nicotinamide] | 50 to 500 nM | 500 to 5000 nM
11 | CC(C)Nc1cc(Nc2ccnc(-c3cnn(S(=O)(=O)C4CC4)c3)n2)ncc1C(=O)NCCCO [Example 57, 6-((2-(1-(cyclopropylsulfonyl)-1H-pyrazol-4-yl)pyrimidin-4-yl)amino)-N-(3-hydroxypropyl)-4-(isopropylamino)nico-tinamide] | < 50 nM | 500 to 5000 nM
12 | CC(C)Nc1cc(Nc2ccnc(-c3cnn(S(=O)(=O)C4CC4)c3)n2)ncc1C(=O)NCCCN(C)C(=O)OC(C)(C)C [Example 58, tert-butyl (3-(6-((2-(1-(cyclopropylsulfonyl)-1H-pyrazol-4-yl)pyrimidin-4-yl)amino)-4-(isopropylamino)nico-tinamido)propyl)(meth-yl)carbamate] | 50 to 500 nM | 500 to 5000 nM
13 | CC(C)Nc1cc(Nc2ccnc(-c3cnn(S(=O)(=O)C4CC4)c3)n2)ncc1C(=O)NCc1ccc(F)cc1 [Example 61, 6-((2-(1-(cyclopropylsulfonyl)-1H-pyrazol-4-yl)pyrimidin-4-yl)amino)-N-(4-fluorobenzyl)-4-(isopropylamino)nico-tinamide] | 50 to 500 nM | 500 to 5000 nM
14 | CC(C)Nc1cc(Nc2ccnc(-c3cnn(S(=O)(=O)C4CC4)c3)n2)ncc1C(=O)NCC1CCCO1 (stereo not shown) [Example 62, 6-((2-(1-(cyclopropylsulfonyl)-1H-pyrazol-4-yl)pyrimidin-4-yl)amino)-4-(isopropylamino)-N-((tetrahydrofuran-2-yl)methyl)nicotin-amide] | < 50 nM | < 500 nM
15 | CC(C)Nc1cc(Nc2ccnc(-c3cnn(S(=O)(=O)C4CC4)c3)n2)ncc1C(=O)NCCCS(C)(=O)=O [Example 64, 6-((2-(1-(cyclopropylsulfonyl)-1H-pyrazol-4-yl)pyrimidin-4-yl)amino)-4-(isopropylamino)-N-(3-(methyl-sulfonyl)propyl) nicotinamide] | 50 to 500 nM | 500 to 5000 nM
16 | CC(C)Nc1cc(Nc2ccnc(-c3cnn(S(=O)(=O)C4CC4)c3)n2)ncc1C(=O)N1CC[C@H](CN2CCN(C)CC2)C1 [Example 65, (R)-(6-((2-(1-(cyclopropylsulfonyl)-1H-pyrazol-4-yl)pyrimidin-4-yl)amino)-4-(isopropylamino)pyri-din-3-)(3-((4-methylpiperazin-1-yl)methyl)pyrrolidin-1-yl)methanone] | < 50 nM | 500 to 5000 nM
17 | CC(C)Nc1cc(Nc2ccnc(-c3cnn(S(=O)(=O)C4CC4)c3)n2)ncc1C(=O)N1CC2(C1)CN(S(C)(=O)=O)C2 [Example 66, (6-((2-(1-(cyclopropylsulfonyl)-1H-pyrazol-4-yl)pyrimidin-4-yl)amino)-4-(isopropylamino)pyri-din-3-yl)(6-(methylsulfonyl)-2,6-diazaspiro[3.3]heptan-2-yl)methanone] | < 50 nM | 500 to 5000 nM
18 | CC(C)Nc1cc(Nc2ccnc(-c3cnn(S(=O)(=O)C4CC4)c3)n2)ncc1C(=O)NCCN1CCCC1 [Example 68, 6-((2-(1-(cyclopropylsulfonyl)-1H-pyrazol-4-yl)pyrimidin-4-yl)amino)-4-(isopropylamino)-N-(2-(pyrrolidin-1-yl)ethyl)nicotinamide] | < 50 nM | 500 to 5000 nM
19 | CC(C)Nc1cc(Nc2ccnc(-c3cnn(S(=O)(=O)C4CC4)c3)n2)ncc1C(=O)NC(CN(C)C)c1ccccc1 (stereo not shown) [Example 70, 6-((2-(1-(cyclopropylsulfonyl)-1H-pyrazol-4-yl)pyrimidin-4-yl)amino)-N-(2-(dimethylamino)-1-phenylethyl)-4-(isopropylamino)nico-tinamide] | < 50 nM | 500 to 5000 nM
20 | CC(C)Nc1cc(Nc2ccnc(-c3cnn(S(=O)(=O)C4CC4)c3)n2)ncc1C(=O)N1C[C@H](CS(C)(=O)=O)[C@H]1C [Example 71, (6-((2-(1-(cyclopropylsulfonyl)-1H-pyrazol-4-yl)pyrimidin-4-yl)amino)-4-(isopropylamino)pyri-din-3-yl)((2R,3S)-2-methyl-3-((methylsulfonyl)meth-yl)azetidin-1-yl)methanone] | < 50 nM | 500 to 5000 nM
